Assay results from US8846912B2, “Tartrate salts of quinazoline based EGFR inhibitors containing a zinc binding moiety” (Curis, Inc., priority 2007, dated 2014).
Counter-ions that a name gives are not always drawn.

How the values were obtained:
[1] = Dilution study with D5W (precipitation, chemical stability); type: physicochemical; conditions: for Dilution with D5W: salt in 30% CAPTISOL; for Chemical stability in diluted solution: salt in 30% CAPTISOL diluted with D5W
[2] = pH of salt solution in 30% CAPTISOL; type: physicochemical; conditions: salt in 30% CAPTISOL
Procedure: Sodium, hydrochloride, citrate and tartrate salts of a test compound of Formula I were prepared in 30% CAPTISOL® solutions and were studied for the following:

HDAC = HDAC fluorimetric enzyme assay (HeLa nuclear extract); type: biochemical
Procedure: HDAC inhibitors were screened using an HDAC fluorimetric assay kit (AK-500, Biomol, Plymouth Meeting, Pa.).
Each assay was setup as follows: Defrosted all kit components and kept on ice until use. […] Prepared dilutions of Trichostatin A (TSA, positive control) and tested compounds in assay buffer (5× of final concentration). Diluted Fluor de Lys™ Substrate in assay buffer to 100 uM (50 fold=2× final). Diluted Fluor de Lys™ developer concentrate 20-fold (e.g. 50 μl plus 950 μl Assay Buffer) in cold assay buffer. Second, diluted the 0.2 mM Trichostatin A 100-fold in the 1× Developer (e.g. 10 μl in 1 ml; final Trichostatin A concentration in the 1× Developer=2 μM; final concentration after addition to HDAC/Substrate reaction=1 μM). Added Assay buffer, diluted trichostatin A or test inhibitor to appropriate wells of the microtiter plate. Added diluted HeLa extract or other HDAC sample to all wells except for negative controls.

[3] = target: T1, human EGFR(His672-Ala1210) (Homo sapiens, UniProt P00533); test: EGFR kinase assay (HTScan EGF Receptor Kinase Assay Kit); type: biochemical; conditions: FIG. 1
T1 construct: a construct expressing human EGFR(His672-Ala1210); GST (N); purchased Cell Signaling Technologies; host or cells: baculovirus expression system
Procedure: The ability of compounds to inhibit receptor kinase (EGFR) activity was assayed using HTScan™ EGF Receptor Kinase Assay Kits (Cell Signaling Technologies, Danvers, Mass.). […] The protein was purified by one-step affinity chromatography using glutathione-agarose.
Immediately transfer enzyme from −80° C. to ice. Allowed enzyme to thaw on ice. […] Returned immediately to ice. […] Incubated reaction plate at room temperature for 30 minutes. […] Added 100 μl/well primary antibody. Incubated at room temperature for 60 minutes. […] Added 100 μl/well diluted antibody. Incubated at room temperature for 30 minutes. […] Incubated at room temperature for 5 minutes.

T1 sequence (P00533 672-1210): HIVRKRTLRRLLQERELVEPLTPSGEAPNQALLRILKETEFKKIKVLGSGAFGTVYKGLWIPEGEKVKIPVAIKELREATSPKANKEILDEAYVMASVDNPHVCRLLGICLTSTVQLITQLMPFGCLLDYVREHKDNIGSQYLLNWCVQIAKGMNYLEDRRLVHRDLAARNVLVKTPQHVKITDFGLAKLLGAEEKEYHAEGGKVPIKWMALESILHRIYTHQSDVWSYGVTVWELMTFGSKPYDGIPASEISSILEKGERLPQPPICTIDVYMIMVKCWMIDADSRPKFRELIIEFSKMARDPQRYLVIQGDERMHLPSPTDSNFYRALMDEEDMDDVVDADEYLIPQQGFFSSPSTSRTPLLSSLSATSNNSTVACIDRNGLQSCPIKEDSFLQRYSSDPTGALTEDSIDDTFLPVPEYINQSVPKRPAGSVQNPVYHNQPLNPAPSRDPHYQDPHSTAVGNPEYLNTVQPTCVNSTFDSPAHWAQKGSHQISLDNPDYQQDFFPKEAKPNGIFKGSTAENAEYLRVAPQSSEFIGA

Compound	IC50 (HDAC)	also measured
C#Cc1cccc(Nc2ncnc3cc(OC)c(OCCCCCCC(=O)NO)cc23)c1 [HCl]		Dilution with D5W [1]: >10x; Chemical stability in diluted solution [1]: >12 h; pH [2]: 2-3
COc1cc2ncnc(N[C@H](C)c3ccccc3)c2cc1OCCCCCC(=O)NO [Compound 77, (R)—N-hydroxy-6-(7-methoxy-4-(1-phenylethylamino)quinazolin-6-yloxy)-hexanamide]	< 100 nM	
COc1cc2ncnc(Nc3ccc(F)c(Cl)c3)c2cc1NC(=O)CCCCCCC(=O)NO [Compound 40, N^1-(4-(3-chloro-4-fluorophenylamino)-7-methoxyquinazolin-6-yl)-N^8-hydroxyoctanediamide]	< 100 nM	
C#Cc1cccc(Nc2ncnc3cc(OC)c(OCCCCCCC(=O)NO)cc23)c1 [Sodium]		Dilution with D5W [1]: >10x; Chemical stability in diluted solution [1]: >12 h; pH [2]: 10-11
C#Cc1cccc(CNc2ncnc3cc(OC)c(OCCCCCCC(=O)NO)cc23)c1 [Compound 90]	< 100 nM	
C#Cc1cccc(Nc2ncnc3ccc(OCCCCCCC(=O)NO)cc23)c1 [Compound 24, 7-(4-(3-ethynylphenylamino)quinazolin-6-yloxy)-N-hydroxyheptanamide]	< 100 nM	
C#Cc1cccc(Nc2ncnc3cc(OC)c(NC(=O)CCCCC(=O)NO)cc23)c1 [Compound 43, N^1-(4-(3-ethynylphenylamino)-7-methoxyquinazolin-6-yl)-N^6-hydroxyadipamide]	100 to 1000 nM	
O=C(CCOc1ccc2ncnc(Nc3ccc(F)c(Cl)c3)c2c1)NO [Compound 14]	1000 to 10000 nM	
COc1cc2ncnc(Nc3ccc(F)c(Cl)c3)c2cc1OCCCCCCC(=O)NO [Compound 6, 7-(4-(3-Chloro-4-fluorophenylamino)-7-methoxyquinazolin-6-yloxy)-N-hydroxyheptanamide]	< 100 nM	activity in HDAC enzyme assay compared with SAHA (HDAC; FIG. 1): more active than erlotinib and SAHA; activity in EGFR enzyme assay compared with erlotinib [3]: more active than erlotinib and SAHA
COc1cc2ncnc(Nc3ccc(F)c(Cl)c3)c2cc1OCCC(=O)NO [Compound 2]	> 10000 nM	
COc1cc2ncnc(Nc3ccc(F)c(Cl)c3)c2cc1NC(=O)CCCC(=O)NO [Compound 38, N^1-(4-(3-chloro-4-fluorophenylamino)-7-methoxyquinazolin-6-yl)-N^5-hydroxyglutaramide]	1000 to 10000 nM	
C#Cc1cccc(Nc2ncnc3cc(OC)c(NC(=O)CCCCCCC(=O)NO)cc23)c1 [Compound 44, N^1-(4-(3-ethynylphenylamino)-7-methoxyquinazolin-6-yl)-N^8-hydroxyoctanediamide]	< 100 nM	
O=C(/C=C/c1ccc(OCCOc2ccc3ncnc(Nc4ccc(F)c(Cl)c4)c3c2)cc1)NO [Compound 63]	100 to 1000 nM	
COc1cc2ncnc(N[C@@H](C)c3ccccc3)c2cc1OCCCCCCC(=O)NO [Compound 80, (S)—N-hydroxy-7-(7-methoxy-4-(1-phenylethylamino)quinazolin-6-yloxy) heptanamide]	< 100 nM	
Nc1cc(Br)ccc1NC(=O)COc1ccc2ncnc(Nc3ccc(F)c(Cl)c3)c2c1 [Compound 45]	> 10000 nM	
C#Cc1cccc(Nc2ncnc3cc(OC)c(OCCC(=O)NO)cc23)c1 [Compound 8]	> 10000 nM	
C#Cc1cc(Nc2ncnc3cc(OC)c(OCCCCCCC(=O)NO)cc23)ccc1F [Compound 75, 7-(4-(3-ethynyl-4-fluorophenylamino)-7-methoxyquinazolin-6-yloxy)-N-hydroxyheptanamide]	< 100 nM	
COc1cc2ncnc(Nc3ccc(F)c(Cl)c3)c2cc1OCCOc1ccc(/C=C/C(=O)NO)cc1 [Compound 66, (E)-3-(4-(2-(4-(3-chloro-4-fluorophenylamino)-7-methoxyquinazolin-6-yloxy)ethoxy)phenyl)-N-hydroxyacrylamide]	100 to 1000 nM	
COc1cc2ncnc(N[C@H](C)c3ccccc3)c2cc1OCCCCCCC(=O)NO [Compound 79, (R)—N-hydroxy-7-(7-methoxy-4-(1-phenylethylamino)quinazolin-6-yloxy)heptanamide]	< 100 nM	
O=C(CCCCCCOc1ccc2ncnc(Nc3ccc(F)c(Cl)c3)c2c1)NO [Compound 18, 7-(4-(3-chloro-4-fluorophenylamino)quinazolin-6-yloxy)-N-hydroxyheptanamide]	< 100 nM	

Compound	IC50 (HDAC)	also measured
C#Cc1cccc(Nc2ncnc3cc(OCCOC)c(OCCCCCCC(=O)NO)cc23)c1 [Compound 36, 7-(4-(3-Ethynylphenylamino)-7-(2-methoxyethoxy)quinazolin-6-yloxy)-N-hydroxyheptanamide]	< 100 nM	
COc1cc2ncnc(Nc3ccc(F)c(Cl)c3)c2cc1OCC(=O)NO [Compound 1, 2-(4-(3-Chloro-4-fluorophenylamino)-7-methoxyquinazolin-6-yloxy)-N-hydroxyacetamide]	> 10000 nM	
O=C(COc1ccc2ncnc(Nc3ccc(F)c(Cl)c3)c2c1)NO [Compound 13, 2-(4-(3-Chloro-4-fluorophenylamino)quinazolin-6-yloxy)-N-hydroxyacetamide]	> 10000 nM	
COCCOc1cc2ncnc(Nc3ccc(F)c(Cl)c3)c2cc1NC(=O)CCCCC(=O)NO [Compound 69, N^1-(4-(3-chloro-4-fluorophenylamino)-7-(2-methoxyethoxy)quinazolin-6-yl)-N^6-hydroxyadipamide]	100 to 1000 nM	
C#Cc1cccc(Nc2ncnc3ccc(OCCCC(=O)NO)cc23)c1 [Compound 21, 4-(4-(3-ethynylphenylamino)quinazolin-6-yloxy)-N-hydroxybutanamide]	1000 to 10000 nM	
COc1cc2ncnc(Nc3ccc(F)c(Cl)c3)c2cc1OCCCCCC(=O)NO [Compound 5]	< 100 nM	
O=C(CCCCCOc1ccc2ncnc(Nc3ccc(F)c(Cl)c3)c2c1)NO [Compound 17, 6-(4-(3-Chloro-4-fluorophenylamino)quinazolin-6-yloxy)-N-hydroxyhexanamide]	< 100 nM	
C#Cc1cccc(Nc2ncnc3ccc(OCCCCC(=O)NO)cc23)c1 [Compound 22]	< 100 nM	
O=C(CCCOc1ccc2ncnc(Nc3ccc(F)c(Cl)c3)c2c1)NO [Compound 15, 4-(4-(3-chloro-4-fluorophenylamino)quinazolin-6-yloxy)-N-Hydroxybutanamide]	< 100 nM	
C#Cc1cccc(Nc2ncnc3cc(OC)c(OCC(=O)NO)cc23)c1 [Compound 7, 2-(4-(3-ethynylphenylamino)-7-methoxyquinazolin-6-yloxy)-N-hydroxyacetamide]	> 10000 nM	
C#Cc1cccc(Nc2ncnc3cc(OC)c(OCCCCC(=O)NO)cc23)c1 [Compound 10, 5-(4-(3-Ethynylphenylamino)-7-methoxyquinazolin-6-yloxy)-N-hydroxypentanamide]	100 to 1000 nM	
C#Cc1cccc(Nc2ncnc3cc(OC)c(OCCCCCC(=O)NO)cc23)c1 [Compound 11, 6-(4-(3-ethynylphenylamino)-7-methoxyquinazolin-6-yloxy)-N-hydroxyhexanamide]	< 100 nM	
C#Cc1cccc(Nc2ncnc3ccc(OCCCCCC(=O)NO)cc23)c1 [Compound 23, 6-(4-(3-ethynylphenylamino)quinazolin-6-yloxy)-N-hydroxyhexanamide]	< 100 nM	
COc1cc2ncnc(Nc3ccc(F)c(Cl)c3)c2cc1OCCOc1ccc(CC(=O)NO)cc1 [Compound 91]	1000 to 10000 nM	
COc1cc2ncnc(NCCc3ccccc3)c2cc1OCCCCCCC(=O)NO [Compound 84]	< 100 nM	
C#Cc1cc(Nc2ncnc3cc(OCCOC)c(OCCCCCCC(=O)NO)cc23)ccc1F [Compound 76]	< 100 nM	
Citric Acid		Dilution with D5W [1]: >10x; Chemical stability in diluted solution [1]: >12 h
COc1cc2ncnc(N[C@H](C)c3ccc(Cl)cc3)c2cc1OCCCCCCC(=O)NO [Compound 82, (R)-7-(4-(1-(4-Chlorophenyl)ethylamino)-7-methoxyquinazolin-6-yloxy)-N-hydroxyheptanamide]	100 to 1000 nM	
COc1cc2ncnc(Nc3ccc(F)c(Cl)c3)c2cc1OCCCCC(=O)NO [Compound 4]	100 to 1000 nM	
